Laboratory results as given in patent US11873298B2, “Compounds and uses thereof” (JANSSEN PHARMACEUTICA NV, priority 2017, dated 2024).
Where “and” joins values, the source holds several entries; their conditions need not be identical. Equal entries are not always repeated.

How the values were obtained:
Type in all cases: cell-based
Ole1 = molecular target: T1, Ole1 (Saccharomyces cerevisiae, UniProt P21147); assay: Growth inhibition of yeast strain expressing Ole1 as sole desaturase; settings: yeast strain expressing Ole1 as sole desaturase
T1 construct: expressed in transfected cells; host or cells: S. cerevisiae ole1Δ strain (W303 pdr1Δ pdr3Δ background), plasmid pRS316 with TDH3 promoter and CYC1 terminator
T1 sequence (P21147 1-510): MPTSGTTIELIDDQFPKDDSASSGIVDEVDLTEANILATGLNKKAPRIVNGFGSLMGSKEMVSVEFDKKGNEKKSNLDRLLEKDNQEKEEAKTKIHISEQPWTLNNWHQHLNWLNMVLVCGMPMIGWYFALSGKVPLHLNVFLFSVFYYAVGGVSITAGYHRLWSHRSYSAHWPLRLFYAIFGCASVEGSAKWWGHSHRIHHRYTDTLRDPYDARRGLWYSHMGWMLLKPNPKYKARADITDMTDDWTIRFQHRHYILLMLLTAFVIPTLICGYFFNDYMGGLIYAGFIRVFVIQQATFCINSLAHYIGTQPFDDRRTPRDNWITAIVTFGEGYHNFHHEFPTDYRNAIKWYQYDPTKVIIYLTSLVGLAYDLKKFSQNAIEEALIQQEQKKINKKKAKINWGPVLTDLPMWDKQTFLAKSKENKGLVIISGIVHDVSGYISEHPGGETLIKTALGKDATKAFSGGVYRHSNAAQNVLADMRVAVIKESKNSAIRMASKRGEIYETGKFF
Outline: (§1)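 OD600 growth read-out. ole1Δ yeast, pdr1Δ pdr3Δ, with Ole1/SCD1/SCD5 on a plasmid; SX-Ura media throughout; 2× cell density 0.02 in CSM-Galactose; DMSO compound dilutions; humidified 30° C.; Ole1 stopped at 24 h, SCD1/SCD5 at 40 h.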

SCD1 = molecular target: T2, SCD1 (Homo sapiens, UniProt O00767); assay: Growth inhibition of humanized yeast strain expressing SCD1 as sole desaturase; settings: humanized yeast strain expressing SCD1
T2 construct: host or cells: S. cerevisiae ole1Δ strain (W303 pdr1Δ pdr3Δ background), plasmid pRS316 with TDH3 promoter and CYC1 terminator
T2 sequence (O00767 1-359): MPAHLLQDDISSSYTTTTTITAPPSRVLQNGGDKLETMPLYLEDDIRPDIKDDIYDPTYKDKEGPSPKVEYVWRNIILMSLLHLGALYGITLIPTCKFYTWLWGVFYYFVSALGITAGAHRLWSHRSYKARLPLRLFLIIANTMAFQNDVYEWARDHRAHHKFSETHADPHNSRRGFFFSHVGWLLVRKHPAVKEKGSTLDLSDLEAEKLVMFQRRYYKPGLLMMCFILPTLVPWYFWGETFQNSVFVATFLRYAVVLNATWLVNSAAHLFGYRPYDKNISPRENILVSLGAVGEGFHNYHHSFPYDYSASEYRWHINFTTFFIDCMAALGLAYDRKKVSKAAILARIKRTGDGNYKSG
Outline: as §1

SCD5 = molecular target: T3, SCD5 (Homo sapiens, UniProt Q86SK9); assay: Growth inhibition of humanized yeast strain expressing SCD5 as sole desaturase; settings: humanized yeast strain expressing SCD5
T3 construct: host or cells: S. cerevisiae ole1Δ strain (W303 pdr1Δ pdr3Δ background), plasmid pRS316 with TDH3 promoter and CYC1 terminator
T3 sequence (Q86SK9 1-330): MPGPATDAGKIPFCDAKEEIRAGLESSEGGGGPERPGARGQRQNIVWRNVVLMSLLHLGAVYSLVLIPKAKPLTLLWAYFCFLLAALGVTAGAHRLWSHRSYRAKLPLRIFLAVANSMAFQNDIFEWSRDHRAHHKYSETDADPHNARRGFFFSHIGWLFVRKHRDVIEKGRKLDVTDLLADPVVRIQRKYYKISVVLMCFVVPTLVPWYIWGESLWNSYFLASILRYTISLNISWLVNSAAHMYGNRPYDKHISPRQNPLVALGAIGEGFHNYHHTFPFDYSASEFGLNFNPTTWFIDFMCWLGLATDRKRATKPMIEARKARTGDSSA
Outline: as §1

| Compound | IC50 (Ole1) | OLE1 % Max Inhibition (Ole1) | IC50 (SCD1) [µM] | SCD1 % Max Inhibition (SCD1) | IC50 (SCD5) [µM] | SCD5 % Max Inhibition (SCD5) |
| --- | --- | --- | --- | --- | --- | --- |
| Cc1nn(C)c2cc(-c3noc(C4CCN(C(=O)C5CC(=O)N(CC6CC6)C5)CC4)n3)ccc12 (stereo not shown) [Compound 245] | > 45 µM | 95.26% | > 45 | 77.70% | > 45 | 66.96% |
| Cc1nn(C)c2cc(-c3noc(C4CCN(C(=O)CNC(=O)c5ccc(C(F)(F)F)cc5)CC4)n3)ccc12 [Compound 317] | > 45 µM | 8.3% |  | 30.0% | > 45 | 20.6% |
| Cc1nn(C)c2cc(-c3noc(C4CCN(C(=O)C5CC(=O)N(c6ccc(F)cc6)C5)CC4)n3)ccc12 (stereo not shown) [Compound 188] | > 45 µM | 4.70% | > 45 | 78.63% | > 45 | 4.51% |
| COc1cccc(-c2noc(C3CC(=O)N(c4ccc(C)c(C)c4)C3)n2)c1 (stereo not shown) [Compound 490] | > 45 µM | 96.38% | 38.8 | 63.84% | 35.1 | 50.39% |
| CC(C)(CO)n1cc2ccc(-c3noc(C4CCN(C(=O)C5CC(=O)N(c6ccccc6)C5)CC4)n3)cc2n1 (stereo not shown) [Compound 201] | > 45 µM | 85.29% | > 45 | 79.67% | 32.9 | 65.14% |
| Cc1nn(C)c2cc(-c3noc(C4CCN(C(=O)CNC(=O)c5cccc(C#N)c5)CC4)n3)ccc12 [Compound 322] | > 45 µM | 9.0% |  | 73.6% | > 45 | 29.8% |
| Cn1c(=O)n(C)c2cc(-c3noc(C4CCN(C(=O)CNC(=O)c5ccccn5)CC4)n3)ccc21 [Compound 230] | > 45 µM | 2.63% | > 45 | 78.48% | > 45 | 44.00% |
| Cc1nn(C(C)C)c2cc(-c3noc(C4CCN(C(=O)CNC(=O)c5ccccc5)CC4)n3)ccc12 [Compound 281] | 33.8 µM and > 45 µM | 60.23% and 32.09% | ≥ 45 | 84.97% and 68.90% | > 45 | 18.03% and 12.39% |
| Cc1nn(C)c2cc(-c3noc(C4CCN(C(=O)[C@@H]5CC(=O)N(c6ccc(C#N)cc6)C5)CC4)n3)ccc12 [Compound 308] | > 45 µM and 27.2 µM | 63.7% and 49.30% | ≥ 45 | 81.6% and 61.05% | > 45 | 15.5% and 6.81% |
| Cc1nn(C)c2cc(-c3noc(C4CCN(C(=O)[C@H]5CN(c6ccccc6)C(=O)O5)CC4)n3)ccc12 [Compound 173] | > 45 µM | 99.75% | > 45 | 78.07% | 29.8 | 42.09% |
| COc1ccc(-c2noc(C3CCN(C(=O)CN)CC3)n2)cc1OC [Compound 75] | > 45 µM |  | > 45 |  | 30 |  |
| Cc1nn(C)c2cc(-c3noc(C4CCN(C(=O)COc5ccccc5)CC4)n3)ccc12 [Compound 266] | > 45 µM | 7.17% |  | 12.42% | > 45 | 9.90% |
| Cc1c2cc(-c3noc(C4CCN(C(=O)c5ccc(C(C)C)cc5)CC4)n3)ccc2nn1C [Compound 318] | > 45 µM | 89.1% | > 45 | 77.6% | > 45 | 33.7% |
| CCOc1ccc(-c2noc(C3CCN(C(=O)[C@H]4CCN(C(=O)c5ccccc5)C4)CC3)n2)cc1OC [Compound 234] | > 45 µM | 84.80% | > 45 | 68.91% | > 45 | 76.83% |
| CCn1nc(C)c2ccc(-c3noc(C4CCN(C(=O)CNC(=O)c5ccccc5)CC4)n3)cc21 [Compound 299] | > 45 µM | 17.5% and 13.58% | ≥ 45 | 89.6% and 62.80% | > 45 | 30.1% and 22.61% |
| Cc1nn(C)c2cc(-c3nc(C4CCN(C(=O)C5CC(=O)N(c6cccc(C#N)c6)C5)CC4)no3)ccc12 (stereo not shown) [Compound 331] | > 45 µM | 13.7% | > 45 | 41.9% | > 45 | 24.9% |
| Cc1nn(C)c2cc(-c3noc(N4CCN(C(=O)N5CCCCC5)CC4)n3)ccc12 [Compound 327] | > 45 µM | 74.8% |  | 66.5% | > 45 | 68.0% |
| COc1ccc(-c2noc(C3CCN(C(=O)[C@H](NC(=O)c4ccccc4)C4CC4)CC3)n2)cc1OC [Compound 190] | > 45 µM | 100.94% | > 45 | 83.53% | > 45 | 19.31% |
| Cc1ccc(N2C[C@H](C(=O)N3CCC(c4nc(-c5ccc6c(C)nn(C)c6c5)no4)CC3)CC2=O)nc1 [Compound 303] | > 45 µM | 14.2% and 8.50% | ≥ 45 | 94.3% and 65% | > 45 | 15.6% and 20.68% |
| CCN(Cc1nc(-c2ccccc2)no1)C(=O)Cc1cccc2ccccc12 [Compound 156] | 37.1 µM | 63.63% | > 45 | 72.58% | > 45 | 22.37% |
| N#CCC1CN(c2noc(C3CCN(C(=O)C4CC(=O)N(c5ccccc5)C4)CC3)n2)C1 (stereo not shown) [Compound 242] | > 45 µM | 95.59% | > 45 | 101.23% | > 45 | 79.22% |
| CC(C)(CO)n1ncc2ccc(-c3noc(C4CCN(C(=O)CNC(=O)c5ccccc5)CC4)n3)cc21 [Compound 189] | > 45 µM | 98.14% | > 45 | 88.10% | > 45 | 68.58% |
| CCN1C(=O)CC(C)c2ccc(-c3noc(C4CCN(C(=O)CNC(=O)c5ccccc5)CC4)n3)cc21 (stereo not shown) [Compound 298] | > 45 µM | 6.6% | > 45 | 92.3% | > 45 | 21.3% |
| CC(C)c1ccc(C(=O)N2CCC(c3nc(C(=O)Nc4cnn(C)c4)no3)CC2)cc1 [Compound 285] | > 45 µM | 105.26% |  | 45.62% | > 45 | 30.09% |
| Cc1nn(C)c2cc(-c3noc(C4CCN(C(=O)CNC(=O)c5cccnc5)CC4)n3)ccc12 [Compound 197] | > 45 µM | 4.80% | > 45 | 66.87% | > 45 | 61.44% |
| CCN1C(=O)COc2ccc(-c3nc(C4(c5ccccc5)CC4)no3)cc21 [Compound 159] | > 45 µM | 46.92% | 38.9 | 70.17% | 13.9 | 10.25% |
